Measurements: ChEMBL document CHEMBL1144908, “5-HT4 receptor ligands: applications and new prospects” (J Med Chem, 2003)

What was measured:
[1] = target: T1, 5-hydroxytryptamine receptor 3A (Homo sapiens, UniProt P46098); assay: Tested for 5-hydroxytryptamine 3 receptor agonist activity; assay type: functional
T1 sequence (P46098 whole entry): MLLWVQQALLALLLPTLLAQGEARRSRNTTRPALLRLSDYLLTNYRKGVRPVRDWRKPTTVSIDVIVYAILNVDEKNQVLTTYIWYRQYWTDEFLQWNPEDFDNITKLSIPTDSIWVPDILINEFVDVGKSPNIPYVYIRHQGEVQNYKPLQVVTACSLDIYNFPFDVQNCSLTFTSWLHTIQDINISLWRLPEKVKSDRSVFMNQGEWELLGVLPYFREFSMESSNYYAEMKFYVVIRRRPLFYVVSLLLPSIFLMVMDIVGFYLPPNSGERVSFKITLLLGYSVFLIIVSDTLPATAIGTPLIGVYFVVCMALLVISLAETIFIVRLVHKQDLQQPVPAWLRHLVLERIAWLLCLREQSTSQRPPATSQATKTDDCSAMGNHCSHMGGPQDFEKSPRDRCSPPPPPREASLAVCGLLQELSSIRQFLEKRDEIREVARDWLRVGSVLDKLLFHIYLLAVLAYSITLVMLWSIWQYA

[2] = Tested for potency against electrically stimulated myenteric plexus; assay type: functional
[3] = target: 5-hydroxytryptamine receptor 4 (Rattus norvegicus) (UniProt Q62758); assay: Tested for affinity towards 5-hydroxytryptamine 4 receptor in relaxation of rat oesophagus
5-hydroxytryptamine receptor 4 (Rattus norvegicus), sequence (Q62758 whole entry): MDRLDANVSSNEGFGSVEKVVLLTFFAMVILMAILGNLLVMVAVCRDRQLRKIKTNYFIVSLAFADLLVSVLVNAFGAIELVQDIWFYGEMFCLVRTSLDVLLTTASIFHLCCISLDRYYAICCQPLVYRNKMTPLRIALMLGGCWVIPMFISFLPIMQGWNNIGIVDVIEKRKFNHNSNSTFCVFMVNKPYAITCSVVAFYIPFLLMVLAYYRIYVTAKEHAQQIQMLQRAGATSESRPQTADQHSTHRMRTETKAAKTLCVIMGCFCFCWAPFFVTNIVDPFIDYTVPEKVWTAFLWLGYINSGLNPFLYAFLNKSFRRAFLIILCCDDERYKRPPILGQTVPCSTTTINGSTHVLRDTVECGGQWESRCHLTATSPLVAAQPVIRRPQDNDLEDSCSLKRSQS

[4] = target: 5-hydroxytryptamine receptor 4 (Cavia porcellus) (UniProt O70528); assay: Tested for affinity towards 5-hydroxytryptamine 4 receptor in guinea pig distal colon preparation; assay type: tissue-based
5-hydroxytryptamine receptor 4 (Cavia porcellus), sequence (O70528 whole entry): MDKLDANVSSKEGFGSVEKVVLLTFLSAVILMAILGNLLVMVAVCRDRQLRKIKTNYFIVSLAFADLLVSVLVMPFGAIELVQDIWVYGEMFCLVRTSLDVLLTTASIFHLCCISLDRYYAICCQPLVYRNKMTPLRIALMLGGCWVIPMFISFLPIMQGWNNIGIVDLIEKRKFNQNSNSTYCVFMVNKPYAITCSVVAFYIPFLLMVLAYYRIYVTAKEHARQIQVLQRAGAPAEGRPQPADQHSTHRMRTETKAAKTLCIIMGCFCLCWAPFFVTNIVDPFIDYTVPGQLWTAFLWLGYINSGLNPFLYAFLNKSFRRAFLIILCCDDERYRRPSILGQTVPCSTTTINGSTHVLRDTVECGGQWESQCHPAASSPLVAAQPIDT

[5] = target: T2, 5-hydroxytryptamine receptor 4 (Homo sapiens, UniProt Q13639); assay: (§1) Tested for 5-hydroxytryptamine 4 receptor antagonist activity; assay type: functional
T2 sequence (Q13639 whole entry): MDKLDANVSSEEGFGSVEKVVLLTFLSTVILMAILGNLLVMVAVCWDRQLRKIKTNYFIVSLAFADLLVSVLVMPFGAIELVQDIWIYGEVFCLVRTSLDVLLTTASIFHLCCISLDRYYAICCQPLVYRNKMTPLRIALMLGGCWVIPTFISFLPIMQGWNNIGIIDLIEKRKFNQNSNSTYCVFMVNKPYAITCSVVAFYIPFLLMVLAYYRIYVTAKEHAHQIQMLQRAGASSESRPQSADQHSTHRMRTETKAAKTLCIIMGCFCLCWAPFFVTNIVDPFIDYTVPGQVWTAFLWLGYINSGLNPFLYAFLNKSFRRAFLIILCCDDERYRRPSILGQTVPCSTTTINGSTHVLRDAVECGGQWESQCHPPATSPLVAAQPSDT

[6] = target: T2, 5-hydroxytryptamine receptor 4; assay: as §1; assay type: functional; remark: listed apart in the source
[7] = species on record: Rattus norvegicus; assay: Tested for affinity towards 5-HT receptor in relaxation of carbachol contracted rat oesophaga muscularis; assay type: functional
[8] = species on record: Cavia porcellus; assay: Tested for inhibitory activity against 5-HT induced contractions of guinea pig ileum; assay type: functional
[9] = target: 5-hydroxytryptamine receptor 4 (Mus musculus) (UniProt P97288); assay: Tested for 5-hydroxytryptamine 4 binding affinity against cisapride
5-hydroxytryptamine receptor 4 (Mus musculus), sequence (P97288 whole entry, looked up): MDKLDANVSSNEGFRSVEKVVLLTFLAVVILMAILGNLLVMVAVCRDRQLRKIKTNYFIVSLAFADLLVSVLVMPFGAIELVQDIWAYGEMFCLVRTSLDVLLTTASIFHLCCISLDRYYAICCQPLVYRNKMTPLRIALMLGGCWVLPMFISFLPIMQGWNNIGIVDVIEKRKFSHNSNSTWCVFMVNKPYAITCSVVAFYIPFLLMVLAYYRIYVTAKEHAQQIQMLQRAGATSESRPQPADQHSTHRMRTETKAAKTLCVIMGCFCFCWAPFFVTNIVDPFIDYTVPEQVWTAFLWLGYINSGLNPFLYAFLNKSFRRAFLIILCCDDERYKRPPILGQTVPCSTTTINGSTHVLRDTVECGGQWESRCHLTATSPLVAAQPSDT

[10] = target: 5-hydroxytryptamine receptor 4 (Mus musculus) (UniProt P97288); assay: Tested for 5-hydroxytryptamine 4 binding affinity against zacopride
[11] = target: 5-hydroxytryptamine receptor 4 (Mus musculus) (UniProt P97288); assay: Tested for 5-hydroxytryptamine 4 binding affinity against renzapride
[12] = target: Serotonin 3 (5-HT3) receptor; assay: (§2) Compound was tested for 5-hydroxytryptamine 3 receptor binding affinity; assay type: protein-complex assay
[13] = target: Serotonin 3 (5-HT3) receptor; assay: Tested for 5-hydroxytryptamine 3 receptor antagonist activity; assay type: functional
[14] = target: 5-hydroxytryptamine receptor 4 (Cavia porcellus) (UniProt O70528); assay: Tested for affinity towards 5-hydroxytryptamine 4 receptor in electrically stimulated longitudinal muscle preparation of guinea pig ileum; assay type: tissue-based
[15] = target: T2, 5-hydroxytryptamine receptor 4; assay: Tested for affinity towards 5-hydroxytryptamine 4 receptor.
[16] = target: T1, 5-hydroxytryptamine receptor 3A; assay: as §2
[17] = target: 5-hydroxytryptamine receptor 4 (Rattus norvegicus, UniProt Q62758); assay: Efficient 5-hydroxytryptamine 4 agonist in the rat tunica muscularis mucosae; assay type: functional, tissue-based, Muscularis mucosa
5-hydroxytryptamine receptor 4 (Rattus norvegicus, UniProt Q62758), sequence (Q62758 whole entry): as the sequence (Q62758 whole entry) above

[18] = target: 5-hydroxytryptamine receptor 4 (Cavia porcellus, UniProt O70528); assay: Tested for affinity against 5-hydroxytryptamine 4 receptor in the myenteric plexus of the guinea pig ileum.; assay type: tissue-based
5-hydroxytryptamine receptor 4 (Cavia porcellus, UniProt O70528), sequence (O70528 whole entry): as the sequence (O70528 whole entry) above

[19] = target: T2, 5-hydroxytryptamine receptor 4; assay: as §1; assay type: functional; remark: listed apart in the source

Q: Which Ki [1] does the source give for `Nc1cc2c(cc1Cl)C(=O)NC1CCN(CCOCCO2)CC1` here?
A: 0.0532 µM

Q: And the EC50 [2]?
A: 0.069 µM

Q: For `COc1cc(N)c(Cl)cc1C(=O)CCC1CCN(CCNS(C)(=O)=O)CC1`, which Activity [3] is on record?
A: 8.6 pEC50

Q: With `CCCCN1CCC(CNC(=O)c2c3n(c4ccccc24)CCCO3)CC1` as the compound, how does the Activity [4] read?
A: 9.2 pIC50

Q: With `CC(C)N1CCN(CCNC(=O)n2c(=O)n(C3CC3)c3ccccc32)CC1` as the compound, how does the Ki [5] read?
A: 0.0067 µM

Q: And the Ki [6]?
A: 0.0166 µM

Q: With `COc1cc(COc2cc(N)c(Cl)cc2C(=O)CCC2CCN(CCNS(C)(=O)=O)CC2)cc(OC)c1` as the compound, how does the Activity [7] read?
A: 9.2 pKi

Q: With `CCCCCN(C)C(=N)N/N=C/c1c[nH]c2c(C)cc(OC)cc12` as the compound, how does the Activity [8] read?
A: 8.4 pA2

Q: For `COc1cc(N)c(Cl)cc1C(=O)NC1CC2CCC(C1)N2C` (centres undefined), which EC50 [9] is on record?
A: 0.0724 µM

Q: What about the EC50 [10] of the same compound?
A: 1.12 µM

Q: And the EC50 [11]?
A: 0.126 µM

Q: With `O=C(NCC1CCN2CCCCC2C1)c1c2n(c3ccccc13)CCCO2` (centres undefined) as the compound, how does the Activity [4] read?
A: 9.5 pIC50

Q: For `COc1cc(N)c(Cl)cc1C(=O)NC1CCN(CCCOc2ccc(F)cc2)CC1OC` (centres undefined) [CISAPRIDE], which Ki [12] is on record?
A: 0.152 µM

Q: Which Ki [13] does the source give for `CNC1(CNC(=O)c2cc(Cl)c(N)cc2OC)CCCC1` here?
A: 0.009 µM

Q: For `COc1cc(N)c(Cl)cc1C(=O)NC1CCN2C(C)CCCC2C1` (centres undefined) [BRL-20627], which EC50 [9] is on record?
A: 0.0724 µM

Q: And the EC50 [10]?
A: 1.12 µM

Q: And the EC50 [11]?
A: 0.126 µM

Q: With `N=C(N)N/N=C/c1c[nH]c2ccc(O)cc12` as the compound, how does the Activity [14] read?
A: 8.8 pD2

Q: With `CCCCN1CCC(CNC(=O)c2cc(Cl)c(N)c3c2OCCO3)CC1` as the compound, how does the Activity [15] read?
A: 9 pKa

Q: Which Activity [14] does the source give for `CCCCCNC(=N)N/N=C/c1c[nH]c2ccc(O)cc12` here?
A: 9.3 pD2

Q: Which Activity [14] does the source give for `CCCCCNC(=N)N/N=C/c1c[nH]c2ccc(OC)cc12` here?
A: 6.9 pD2

Q: For `COc1cc(N)c(Cl)cc1C(=O)NC[C@@H]1CCN2CCC[C@@H]12`, which Ki [16] is on record?
A: 0.152 µM

Q: What about the EC50 [17] of the same compound?
A: 0.0237 µM

Q: For `CCOc1cc(N)c(Cl)cc1C(=O)NCC1CN(Cc2ccc(F)cc2)CCO1` (centres undefined) [MOSAPRIDE], which Ki [18] is on record?
A: 0.084 µM

Q: With `CCCCN1CCC(COC(=O)c2c3n(c4ccccc24)CCCO3)CC1` as the compound, how does the Activity [4] read?
A: 10.6 pIC50

Q: With `CCCCN1CCC(CCC(=O)c2cc(Cl)c(N)cc2OC)CC1` as the compound, how does the Activity [3] read?
A: 8.4 pEC50

Q: Which Activity [7] does the source give for `COc1cc(COc2cc(N)c(Cl)cc2C(=O)CCCCN2CCCCC2)cc(OC)c1` here?
A: 8.5 pKi

Q: Which Intrinsic activity [19] does the source give for `CC(C)n1c(=O)n(C(=O)NCCN2CCN(C)CC2)c2ccccc21` here?
A: 0.94

Q: What about the Ki [5] of the same compound?
A: 0.0919 µM
